Results as given in patent publication US6835734B2, “1,3-dioxolanes with antitussive activity” (Dompé S.p.A., priority 2000, dated 2004).

How the values were obtained:
[1] = system: male Dunkin-Hartley Guinea pigs; experiment: capsaicin aerosol-induced cough after intravenous administration; type: in vivo, Guinea pig; details: for recorded cough strokes / inhibition of the response to the tussigenic stimulus: 10 mg/kg intravenous, 0.0045% capsaicin aerosol 5 minutes after administration; for recorded cough strokes: during the 4 minute aerosol; for inhibition of the response to the tussigenic stimulus: strokes recorded during 4 minute aerosol
Protocol: The tests were carried out on male Dunkin-Hartley Guinea pigs (4-6 animals for group), which were subjected to aerosol of a 0.0045% (p/v) capsaicin aqueous solution [Lavezzo A., Pulm. Pharmacol., 5, 143-147, 1992; Gallico L. et al, Br. J. Pharmacol., 112, 795-800. 1994] 5 minutes after intravenous administration of 0.5 ml of a (−)-1,2-cyclohexylidene-3-(4-phenyl-piperazin-1-yl)-propane-1,2-diol fumarate solution (DF 1689A, 10 mg/kg) compared with 0.5 ml of a levodropropizine solution, pH 4.5 (10 mg/kg) and with an equal volume of saline solution (control).

[2] = system: male Dunkin-Hartley Guinea pigs; experiment: cough strokes after aerosol administration of the medicaments; type: in vivo, Guinea pig; details: aerosol with 1% (w/v) aqueous solution for 10 minutes, compared with saline aerosol controls

| SMILES | recorded cough strokes [1] | inhibition of the response to the tussigenic stimulus [1] [%] | inhibition on the tussigen stimulus induced by capsaicin aerosol ([1]; 15 minutes after the intravenous administration) [%] | inhibition on the tussigen stimulus induced by capsaicin aerosol ([1]; 30 minutes after the intravenous administration) [%] | inhibitory effect on number of cough strokes [2] |
| --- | --- | --- | --- | --- | --- |
| O=C(O)/C=C/C(=O)O.c1ccc(N2CCN(C[C@H]3COC4(CCCCC4)O3)CC2)cc1 [DF 1689A, S(−)-1,2-cyclohexylidene-3-(4-phenyl-piperazin-1-yl)propane-1,2-diol fumarate] | 4.83±0.54 | 47.3 | 34.6 | 27.3 | about 35% |
| OCC(O)CN1CCN(c2ccccc2)CC1 (single isomer, unassigned; (-)) [levodropropizine, (−) 3-(4-phenyl-piperazin-1-yl)-1,2-propanediol, reference compound] | 5.17±0.54 | 43.6 | – | – | about 35% |
